The text below walks through data of US20160250185A1, “PHARMACEUTICAL COMPOSITION FOR C[…] MASS GAIN […]-PHENOTROPIL” (LATVIAN INSTITUTE OF ORGANIC SYNTHESIS, priority 2013, published 2016).

A short description of data set [1]: Open field test, locomotor activity. The format is in vivo. The note with it: for locomotor effect compared with R-phenotropil: respective doses, S-enantiomer at 50 mg/kg; for time for which increase in locomotor activity was retained: single i.p., 50 mg/kg stated for R-phenotropil. As for the experimental part: Locomotor activity was tested in an open field test 30, 60, 120, 180 and 240 min after a single i.p. injection of the racemic phenotropil and R- and S-enantiomers (FIG. 1A,B,C,D). […] R-phenotropil in 5, 10 and 50 mg/kg doses induced a statistically significant increase in locomotor activity in comparison with the control animals [F(3.31)=10.37, p<0.0001] (FIG. 1A,C). Furthermore, R-phenotropil in the dose of 50 mg/kg retained a statistically significant increase in locomotor activity for up to 240 min [F(9.80)=24.03, p<0.0001] (FIG. 1B,D).

A short description of data set [2]: Forced swimming test (duration of immobility), antidepressive effect. The class given is in vivo. The note with it: for doses significantly reducing duration of immobility vs control group: 30 min after i.p. injection, doses tested 10, 50 and 100 mg/kg. As for the experimental part: The antidepressive effect of the racemic, R- and S-phenotropil was tested in a forced swimming test (by determining the duration of immobility) 30 min after the i.p. injection of the compounds in doses 10, 50 and 100 mg/kg (FIG. 2).

Data set [3] deals with mice. As to the kind of experiment: Passive avoidance test, latent period of the remembering process. The format is in vivo. Conditions: for effect on latent period / passive avoidance: dose not given; for increase of latent period in comparison with control group: mice. As for the experimental part: The influence of racemic, R- and S-phenotropil on memory processes was determined by means of a passive avoidance test (PCR), by registering the latent period of the remembering process.

Data set [4] in a line: Cylinder test, muscle strength and coordination. The format is in vivo. Conditions: for effect on muscle strength and coordination: cylinder, traction and rotating rod tests, up to 500 mg/kg. As for the experimental part:
(§1) None of the compounds affected rectal temperature at the dose of 500 mg/kg (Table 1).
(§2) The compounds were administered in i.p. doses of 50, 100, 250 and 500 mg/kg. The effect of the substances in different tests was evaluated 30, 60, 120 and 180 min after the administration of the compounds. ED50 value was calculated by, performing probit analysis.

Data set [5] in a line: Traction test, muscle strength and coordination. The format is in vivo. Conditions: i.p. 50, 100, 250 and 500 mg/kg, 30-180 min, probit analysis. As for the experimental part:
as §1, §2

A short description of data set [6]: Rotating rod test, muscle strength and coordination. The format is in vivo. The note with it: i.p. 50, 100, 250 and 500 mg/kg, 30-180 min, probit analysis. As for the experimental part:
as §1, §2

Data set [7] can be described thus: Rectal temperature. The class given is in vivo. The note with it: i.p. 50, 100, 250 and 500 mg/kg, 30-180 min, probit analysis. As to the method:
as §1, §2

For data set [8] the following is noted: nootropic activity, literature (Malykh, Sadaie 2010); cited from earlier work.
Data set [9] relates to Zucker fa/fa rats. As to the kind of experiment: Body mass gain in Zucker fa/fa rats, 12 weeks oral administration. The class given is in vivo. As for the experimental part:
The influence of an S-phenotropil containing composition on the body mass. Zucker fa/fa (HsdOla:Zucker-Lepfre; Harlan Laboratories) and Zucker lean line rats (HsdOla:Zucker-Lean; Harlan Laboratories) with the body mass of 100-170 g were used during the experiment. At the beginning of the experiment the animals were 6 weeks old. Standard conditions for keeping the experimental animals were ensured (air temperature 21° C.-23° C., relative air humidity 65%±10%, 12 hour light/darkness cycle). Standardised feed (R70) by the company LABFOR (Lactamin AB, Sweden) was used to feed the animals, drinking water was accessible without limitations.
S-phenotropil containing pharmaceutical composition in water or water was orally administered to the mature male rats included into the experimental group once daily in the morning: To the Zucker lean group (n=10), water p.o., to the Zucker fa/fa control group (n=10), water p.o. or to the Zucker fa/fa group S-phenotropil containing composition 50 mg/kg (n=5), p.o. The resulting values were expressed as mean values±standard error of the mean (S.E.M.) T-test was used to check the validity of the results. The results were considered valid, if the p value was less than 0.05. […] Since the increase in mass for ZuckerLean control rats is primarily connected with normal increase in muscle mass, as the animals grow, the effect of S-phenotropil in terms of the increase of ZuckerFF fat mass is 39% (FIG. 6).

The mark [10] stands for this setting: i.p. 50, 100, 250 and 500 mg/kg, 30-180 min, probit analysis.
Setting [11] is: Zucker fa/fa rats, 50 mg/kg p.o. once daily, mean ± S.E.M.

The structures appear in SMILES notation. Entries after “also recorded” stand apart in the source; their conditions may differ. Marks after values point to notes of the source that are not given here.

With `NC(=O)CN1CC(c2ccccc2)CC1=O` (racemic) [Phenotropil racemate], in [1], the “locomotor effect compared with R-phenotropil” value is listed as “less active than R-phenotropil” and the “time for which increase in locomotor activity was retained” value is given as “up to 180 min”. Moreover, the “doses significantly reducing duration of immobility vs control group” value in data set [2] was 100 mg/kg. In data set [3] (1 mg/kg), the “effect on latent period in comparison with control group” value is given as “significantly increased the latent period”. Further, in data set [4], the “effect on muscle strength and coordination” value was “did not affect muscle strength and coordination”. The “ED50 Cylinder” value in [4] (setting [10]) is recorded as above 500 mg/kg. In data set [5], the “ED50 Traction” value is above 500 mg/kg. The “ED50 Rotating rod” value in data set [6] was above 500 mg/kg. Moreover, in [7], the “ED50 Rectal temperature” value is reported as above 500 mg/kg. For the same compound, the “activity relative to piracetam” value in data set [8] is 30-60 times.
As to `NC(=O)CN1C[C@@H](c2ccccc2)CC1=O` [R-phenotropil], the “time for which increase in locomotor activity was retained” value in [1] is “up to 240 min”. Also, in [2] (100 mg/kg i.p., 30 min), the “reduction of duration of immobility in comparison with control group” value is on record as 8 times. In addition, the “antidepressive effect compared with the other tested compounds / control” value in [2] (i.p., 30 min after injection) is “significantly higher in comparison with racemic and S-phenotropil”. Further, the “effect on latent period in comparison with control group” value in [3] (1 mg/kg) is reported as “significantly increased the latent period”. Also, in [3], the “effect on latent period / passive avoidance” value was “considerably affects memory”. In addition, the “increase of latent period in comparison with control group” value in data set [3] (1 mg/kg) is on record as 195%; in data set [3] (10 mg/kg), 185%. Besides, the “ED50 Cylinder” value in data set [4] (setting [10]) stood at 258 ± 25 mg/kg. The “ED50 Traction” value in data set [5] was 250 ± 40 mg/kg. For the same compound, the “ED50 Rotating rod” value in data set [6] came out at 320 ± 60 mg/kg. In addition, the “ED50 Rectal temperature” value in data set [7] was above 500 mg/kg.
As a reminder, the ED50 is the dose at which the effect has come halfway, by size or by number of responders. A lower ED50 goes with an effect at a small dose. Regarding `NC(=O)CN1C[C@H](c2ccccc2)CC1=O` [S-phenotropil, (S)-2-(2-oxo-4-phenylpyrrolidin-1-yl)acetamide], the “dose for statistically significant effect on locomotor activity relative to R-phenotropil” value in data set [1] turned out to be 10 times. Also, the “locomotor effect compared with R-phenotropil” value in data set [1] is listed as “statistically significantly weaker than the effect of R-enantiomer”. Besides, the “doses inducing statistically significant increase in locomotor activity vs control animals” value in data set [1] (single i.p. injection) is 50 mg/kg. The “doses significantly reducing duration of immobility vs control group” value in [2] came out at 100 mg/kg. The “effect on latent period / passive avoidance” value in [3] is on record as “does not have any effect in a passive avoidance test; also recorded: did not affect the latent period”. In addition, the “effect on muscle strength and coordination” value in data set [4] is “did not affect muscle strength and coordination”. The ED50 is above 500 mg/kg in data set [4] (in vivo, intraperitoneal, i.p. 50, 100, 250 and 500 mg/kg, 30-180 min, probit analysis); above 500 mg/kg in data set [5] (in vivo, intraperitoneal); above 500 mg/kg in data set [6] (in vivo, intraperitoneal); above 500 mg/kg in [7] (in vivo, intraperitoneal). In addition, the “effect on weight increase” value in data set [9] (Zucker FF rats, 12 weeks, 50 mg/kg p.o.) is on record as “statistically significantly reduced the weight increase”. Also, the “Increase in fat mass in Week 12” value in data set [9] (setting [11]) is 106 ± 7 g. The “Weight increase in Week 12” value in data set [9] (setting [11]) was 2645 ± 30*^, # AUC units. For the same compound, the “reduction of total weight gain” value in data set [9] (Zucker fa/fa rats, 50 mg/kg p.o., 12 weeks) was found to be 22%. For the same compound, the “effect in terms of the increase of ZuckerFF fat mass” value in [9] (Zucker fa/fa rats, 50 mg/kg p.o., 12 weeks, relative to Zucker lean growth) amounted to 39%.
